Results reported in article PMC7093416, “Selective USP7 inhibition elicits cancer cell killing through a p53-dependent mechanism” (Scientific Reports, 2020).

Tested on: panel of 484 cancer cell lines
Test: PRISM cancer cell line profiling, 5 days
Assay type: cell-based
Set-up: AUC: unit not given beside the values
Experimental: Cancer cell line profiling was performed using the Broad’s PRISM platform. Cell treatment and data analysis were performed as described in Yu et al[42]. Raw Luminex signal was converted to AUC values for each cell line as described. The resulting AUC profile for each compound was modeled against DepMap using the limma package in R[71]. Because hotspot mutation analysis was performed against DepMap, TP53 annotations in Fig. 6c,d are directly from DepMap.

SMILES: CN1CCN(CCC(=O)Nc2ccc3c(=O)n(CC4(O)CCN(C(=O)[C@H](CCCNC(=O)c5ccc6c(Cl)c7c(nc6c5)CCCC7)Cc5ccccc5)CC4)cnc3c2)CC1 [XL177B]
- AUC (HCC1438_LUNG): 0.9398
- AUC (HCC1588_LUNG): 1.124
- AUC (HCC1806_BREAST): 1.262
- AUC (HCC1937_BREAST): 0.9651
- AUC (HCC4006_LUNG): 1.102
- AUC (HCT15_LARGE_INTESTINE): 1.193
- AUC (HCT116_LARGE_INTESTINE): 1.02
- AUC (HDQP1_BREAST): 0.9999
- AUC (HEC1A_ENDOMETRIUM): 1.104
- AUC (HEC1B_ENDOMETRIUM): 1.096
- AUC (HEC6_ENDOMETRIUM): 1.02
- AUC (HEC59_ENDOMETRIUM): 1.13
- AUC (HEC108_ENDOMETRIUM): 0.935
- AUC (HEC151_ENDOMETRIUM): 0.9419
- AUC (HEC251_ENDOMETRIUM): 0.8279
- AUC (HEC265_ENDOMETRIUM): 0.8825
- AUC (HEP3B217_LIVER): 1.23
- AUC (HEYA8_OVARY): 1.2
- AUC (HGC27_STOMACH): 1.226
- AUC (HLF_LIVER): 0.794
- AUC (HMC18_BREAST): 1.228
- AUC (HOS_BONE): 1.145
- AUC (HPAC_PANCREAS): 1.288
- AUC (HS294T_SKIN): 1.038
- AUC (HS618T_LUNG): 1.097
- AUC (HS729_SOFT_TISSUE): 1.1211
- AUC (HS766T_PANCREAS): 1.2108
- AUC (HS852T_SKIN): 1.089
- AUC (HS939T_SKIN): 1.116
- AUC (HS944T_SKIN): 1.026
- AUC (HSC2_UPPER_AERODIGESTIVE_TRACT): 1.102
- AUC (HSC3_UPPER_AERODIGESTIVE_TRACT): 1.094
- AUC (HT29_LARGE_INTESTINE): 1.23
- AUC (HT55_LARGE_INTESTINE): 1.212
- AUC (HT144_SKIN): 1.106
- AUC (HT1080_SOFT_TISSUE): 0.9733
- AUC (HT1376_URINARY_TRACT): 0.9173
- AUC (HUCCT1_BILIARY_TRACT): 1.078
- AUC (HUH6_LIVER): 0.9719
- AUC (HUH7_LIVER): 1.132
- AUC (HUH28_BILIARY_TRACT): 1.093
- AUC (HUPT3_PANCREAS): 1.102
- AUC (IALM_LUNG): 1.165
- AUC (IGR1_SKIN): 1.13
- AUC (IGR37_SKIN): 1.06
- AUC (IGROV1_OVARY): 0.9036
- AUC (IM95_STOMACH): 0.9524
- AUC (IPC298_SKIN): 1.071
- AUC (ISHIKAWAHERAKLIO02ER_ENDOMETRIUM): 1.087
- AUC (ISTMES1_PLEURA): 0.902
- AUC (ISTMES2_PLEURA): 1.138
- AUC (J82_URINARY_TRACT): 1.062
- AUC (JHH1_LIVER): 0.9889
- AUC (JHH4_LIVER): 0.8541
- AUC (JHH5_LIVER): 1.201
- AUC (JHH6_LIVER): 1.182
- AUC (JHH7_LIVER): 1.125
- AUC (JHOC5_OVARY): 1.064
- AUC (JHOM1_OVARY): 1.08
- AUC (JHOS2_OVARY): 1.281
- AUC (JHUEM2_ENDOMETRIUM): 0.8483
- AUC (JIMT1_BREAST): 0.9922
- AUC (JMSU1_URINARY_TRACT): 1.004
- AUC (K029AX_SKIN): 1.1273
- AUC (KALS1_CENTRAL_NERVOUS_SYSTEM): 1.102
- AUC (KELLY_AUTONOMIC_GANGLIA): 1.134
- AUC (KMBC2_URINARY_TRACT): 0.9911
- AUC (KMRC1_KIDNEY): 1.146
- AUC (KMRC3_KIDNEY): 1.058
- AUC (KMRC20_KIDNEY): 1.146
- AUC (KNS42_CENTRAL_NERVOUS_SYSTEM): 1.1
- AUC (KNS60_CENTRAL_NERVOUS_SYSTEM): 1.09
- AUC (KNS62_LUNG): 1.118
- AUC (KNS81_CENTRAL_NERVOUS_SYSTEM): 1.075
- AUC (KP2_PANCREAS): 0.9926
- AUC (KP3_PANCREAS): 1.089
- AUC (KP4_PANCREAS): 0.9662
- AUC (KPL1_BREAST): 1.217
- AUC (KU1919_URINARY_TRACT): 0.9667
- AUC (KYSE30_OESOPHAGUS): 1.063
- AUC (KYSE70_OESOPHAGUS): 1.0546
- AUC (KYSE140_OESOPHAGUS): 1.1657
- AUC (KYSE150_OESOPHAGUS): 1.101
- AUC (KYSE180_OESOPHAGUS): 1.135
- AUC (KYSE270_OESOPHAGUS): 1.03
- AUC (KYSE410_OESOPHAGUS): 1.091
- AUC (KYSE510_OESOPHAGUS): 1.034
- AUC (KYSE520_OESOPHAGUS): 1.133
- AUC (L33_PANCREAS): 1.426
- AUC (LC1SQSF_LUNG): 1.115
- AUC (LCLC103H_LUNG): 1.231
- AUC (LI7_LIVER): 0.9601
- AUC (LK2_LUNG): 1.126
- AUC (LMSU_STOMACH): 1.053
- AUC (LN18_CENTRAL_NERVOUS_SYSTEM): 1.129
- AUC (LN229_CENTRAL_NERVOUS_SYSTEM): 1.034
- AUC (LNCAPCLONEFGC_PROSTATE): 0.9173
- AUC (LOUNH91_LUNG): 1.097
- AUC (LOVO_LARGE_INTESTINE): 1.325
- AUC (LOXIMVI_SKIN): 1.09
- AUC (LS180_LARGE_INTESTINE): 1.075
- AUC (LS411N_LARGE_INTESTINE): 1.3262
- AUC (LS513_LARGE_INTESTINE): 1.3335
- AUC (LS1034_LARGE_INTESTINE): 1.506
- AUC (LU99_LUNG): 0.9959
- AUC (LUDLU1_LUNG): 0.9789
- AUC (LXF289_LUNG): 1.119
- AUC (MALME3M_SKIN): 0.9879
- AUC (MCAS_OVARY): 1.03
- AUC (MCF7_BREAST): 1.188
- AUC (MDAMB175VII_BREAST): 1.1488
- AUC (MDAMB231_BREAST): 1.063
- AUC (MDAMB435S_SKIN): 1.117
- AUC (MDAMB436_BREAST): 1.147
- AUC (MDAMB468_BREAST): 1.0692
- AUC (MELHO_SKIN): 1.016
- AUC (MELJUSO_SKIN): 1.072
- AUC (MESSA_SOFT_TISSUE): 0.9027
- AUC (MEWO_SKIN): 1.126
- AUC (MFE280_ENDOMETRIUM): 1.168
- AUC (MFE296_ENDOMETRIUM): 1.031
